In ChEMBL document CHEMBL3580661, “Structure-Guided Design of Group I Selective p21-Activated Kinase Inhibitors” (J Med Chem, 2015):
Values after ≈ are worked out from the molar mass of the structure shown. Each block holds one compound with its values, some of them ahead of it.

How the values were obtained:
[1] = target: T1, Serine/threonine-protein kinase PAK 1 (Homo sapiens, UniProt Q13153); test: Inhibition of PAK1 (unknown origin)
[2] = target: T2, Serine/threonine-protein kinase PAK 4 (Homo sapiens, UniProt O96013); test: Inhibition of human PAK4
T2 sequence (O96013 whole entry, the tested form may be a part): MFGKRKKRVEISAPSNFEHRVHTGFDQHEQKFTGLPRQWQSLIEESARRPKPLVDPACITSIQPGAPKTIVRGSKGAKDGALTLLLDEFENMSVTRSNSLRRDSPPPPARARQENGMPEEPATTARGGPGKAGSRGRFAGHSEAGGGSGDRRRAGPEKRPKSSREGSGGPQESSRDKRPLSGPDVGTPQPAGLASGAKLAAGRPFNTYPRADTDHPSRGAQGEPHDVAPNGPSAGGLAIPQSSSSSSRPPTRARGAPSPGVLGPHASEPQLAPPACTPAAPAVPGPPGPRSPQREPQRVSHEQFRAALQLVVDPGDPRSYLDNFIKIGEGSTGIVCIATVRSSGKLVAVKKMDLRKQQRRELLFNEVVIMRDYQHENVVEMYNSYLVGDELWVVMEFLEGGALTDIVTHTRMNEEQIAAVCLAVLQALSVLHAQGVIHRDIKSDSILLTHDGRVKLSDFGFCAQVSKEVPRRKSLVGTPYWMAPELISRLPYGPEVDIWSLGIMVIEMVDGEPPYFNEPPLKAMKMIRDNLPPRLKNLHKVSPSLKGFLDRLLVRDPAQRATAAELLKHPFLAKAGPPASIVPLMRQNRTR

[3] = target: T1, Serine/threonine-protein kinase PAK 1; test: Inhibition of human recombinant PAK1 kinase domain using coumarin/fluorescein-labeled FRET peptide as substrate assessed as substrate phosphorylation at Ser/Thr19 preincubated for 10 mins followed by ATP addition measured after 60 mins by Z'-LYTE assay
[4] = target: T2, Serine/threonine-protein kinase PAK 4; test: Inhibition of human recombinant PAK4 kinase domain using coumarin/fluorescein-labeled FRET peptide as substrate assessed as substrate phosphorylation at Ser/Thr19 preincubated for 10 mins followed by ATP addition measured after 60 mins by Z'-LYTE assay
[5] = Drug metabolism in rat liver S9 fraction assessed as N-acetyltransferase-mediated metabolite formation by measuring parent compound level at 1 uM after 60 mins in presence of acetyl CoA, NADPH; format: ADME, subcellular; conditions: s9, 1 h
[6] = system: Liver; test: Metabolic stability in rat liver S9 fraction at 1 uM after 60 mins in absence of NADPH; format: ADME; conditions: s9, 1 h
[7] = Metabolic stability in rat liver S9 fraction assessed as compound remaining at 1 uM measured at 60 mins in presence of NADPH; format: ADME, subcellular; conditions: read-out: Stability
[8] = target: T1, Serine/threonine-protein kinase PAK 1; test: Inhibition of PAK1 in human EBC1 cells assessed as inhibition of MEK phosphorylation at S298 after 2 hrs by HTRF assay; format: cell-based
[9] = Apparent permeability across apical to basolateral side in MDCK cells; format: ADME, cell-based, Canis lupus familiaris; conditions: dog
[10] = Apparent permeability across basolateral to apical side in MDCK cells; format: ADME, cell-based, Canis lupus familiaris; conditions: dog
[11] = system: Rattus norvegicus; test: Plasma clearance in rat at 2.5 mg/kg, iv administered as bolus dose; format: ADME, organism-based; conditions: in vivo
[12] = system: Mus musculus; test: Plasma clearance in mouse at 2 mg/kg, iv administered as bolus dose; format: ADME, organism-based; conditions: in vivo
[13] = Lipophilicity, log D of the compound; format: physicochemical; conditions: octanol/water
[14] = Kinetic solubility of the compound; format: physicochemical; conditions: read-out: Kinetic_solubility
[15] = system: Liver; test: Metabolic stability in rat liver S9 fraction at 1 uM after 60 mins in presence of NADPH; format: ADME, subcellular; conditions: s9, 1 h
[16] = system: Hepatocyte; test: Drug uptake in mouse hepatocytes; format: ADME, cell-based
[17] = Plasma clearance in rat at 2 mg/kg, iv administered as bolus dose; format: ADME, organism-based
[18] = Drug metabolism in rat liver S9 fraction assessed as glucuronide metabolite formation at 1 uM in presence of UDPGA; format: ADME, subcellular; conditions: s9, 1 µM
[19] = Drug metabolism in rat liver S9 fraction assessed as N-acetyltransferase-mediated metabolite formation by measuring parent compound level at 1 uM after 80 mins in presence of acetyl CoA, NADPH; format: ADME, subcellular; conditions: s9, 80 min
[20] = Drug metabolism in rat liver S9 fraction assessed as oxidative metabolite formation by measuring parent compound level at 1 uM measured over 60 mins in presence of NADPH; format: ADME, subcellular; conditions: s9, 1 h
[21] = Lipophilicity, log D of the compound at pH 7.4; format: physicochemical; conditions: buffer
[22] = Drug metabolism in rat liver S9 fraction assessed as N-acetyltransferase-mediated metabolite formation at 1 uM measured over 60 mins in presence of acetyl CoA, NADPH; format: ADME, subcellular; conditions: s9, 1 h
[23] = Plasma protein binding in rat; format: ADME, cell-free; conditions: read-out: PPB (converted)
[24] = Plasma clearance in rat at 1 mg/kg, iv administered as bolus dose; format: ADME, organism-based
[25] = Oral bioavailability in rat at 5 mg/kg; format: ADME, organism-based; conditions: in vivo
[26] = target: T3, Aurora kinase A (Homo sapiens, UniProt O14965); test: Inhibition of aurora A (unknown origin)
T3 sequence (O14965 whole entry): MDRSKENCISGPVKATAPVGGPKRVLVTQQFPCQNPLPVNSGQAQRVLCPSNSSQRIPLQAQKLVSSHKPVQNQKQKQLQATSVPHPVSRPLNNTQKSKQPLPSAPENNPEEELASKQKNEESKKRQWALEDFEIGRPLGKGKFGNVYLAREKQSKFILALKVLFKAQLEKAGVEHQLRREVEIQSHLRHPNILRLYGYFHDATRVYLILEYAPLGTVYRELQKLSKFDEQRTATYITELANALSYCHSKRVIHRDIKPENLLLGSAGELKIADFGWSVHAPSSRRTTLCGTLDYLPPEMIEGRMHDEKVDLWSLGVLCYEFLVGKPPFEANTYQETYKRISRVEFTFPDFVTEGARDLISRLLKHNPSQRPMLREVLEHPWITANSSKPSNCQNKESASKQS

T1 sequence (Q13153 whole entry): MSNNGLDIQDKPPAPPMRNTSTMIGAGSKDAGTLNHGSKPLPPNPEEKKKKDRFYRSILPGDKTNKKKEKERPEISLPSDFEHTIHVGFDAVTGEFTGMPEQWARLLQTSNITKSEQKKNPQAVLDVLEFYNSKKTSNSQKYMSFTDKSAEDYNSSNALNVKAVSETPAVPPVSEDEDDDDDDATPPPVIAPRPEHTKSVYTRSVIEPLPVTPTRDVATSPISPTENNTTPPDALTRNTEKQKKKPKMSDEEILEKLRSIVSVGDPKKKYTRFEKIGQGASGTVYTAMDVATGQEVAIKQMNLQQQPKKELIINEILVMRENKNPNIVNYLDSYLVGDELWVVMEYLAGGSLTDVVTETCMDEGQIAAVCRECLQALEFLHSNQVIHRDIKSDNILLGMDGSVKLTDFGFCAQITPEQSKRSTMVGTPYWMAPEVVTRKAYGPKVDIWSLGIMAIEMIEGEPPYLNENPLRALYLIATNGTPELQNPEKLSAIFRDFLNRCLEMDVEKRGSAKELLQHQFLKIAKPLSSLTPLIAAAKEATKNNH

Ki [1]: 0.05 µM | Ki [2]: 0.002 µM
Compound: N[C@@H]1[C@H]2CN(c3nc(Nc4cc(C5CC5)[nH]n4)c4sccc4n3)C[C@@H]12

Ki [1]: 0.1 µM | Ki [2]: 0.049 µM
Compound: CC1CCN(c2nc(Nc3cc(C4CC4)n[nH]3)c3ccccc3n2)CC1

Ki [3]: 0.022 µM | Ki [4]: 0.012 µM | Stability [5]: < 1% | Stability [6]: Stable | remaining at 1 h, 1 µM [7]: 51%
Compound: NC1CCN(c2nc(Nc3cc(C4CC4)[nH]n3)c3sccc3n2)CC1

Ki [3]: 0.179 µM
Compound: Cc1cc(Nc2nc(N3CCC(N)CC3)nc3ccsc23)n[nH]1

Ki [3]: 0.033 µM
Compound: CCc1cc(Nc2nc(N3CCC(N)CC3)nc3ccsc23)n[nH]1

Ki [3]: 0.048 µM
Compound: CCCc1cc(Nc2nc(N3CCC(N)CC3)nc3ccsc23)n[nH]1

Ki [3]: 0.033 µM
Compound: CC(C)c1cc(Nc2nc(N3CCC(N)CC3)nc3ccsc23)n[nH]1

Ki [3]: 0.018 µM
Compound: NC1CCN(c2nc(Nc3cc(C4CCC4)[nH]n3)c3sccc3n2)CC1

Ki [3]: 0.66 µM
Compound: NC1CCN(c2nc(Nc3cc(-c4ccccc4)[nH]n3)c3sccc3n2)CC1

Ki [3]: 0.119 µM | Ki [4]: 0.045 µM
Compound: NC1CCN(c2nc(Nc3cc(C4CC4)[nH]n3)c3occc3n2)CC1

Ki [3]: 0.454 µM | Ki [4]: 0.283 µM
Compound: NC1CCN(c2nccc(Nc3cc(C4CC4)[nH]n3)n2)CC1

Ki [3]: 0.561 µM | Ki [4]: 0.612 µM
Compound: NC1CCN(c2cccc(Nc3cc(C4CC4)[nH]n3)n2)CC1

Ki [3]: 4.39 µM | Ki [4]: 1.82 µM
Compound: NC1CCN(c2cc(Nc3cc(C4CC4)[nH]n3)ccn2)CC1

Ki [3]: 0.245 µM | Ki [4]: 0.08 µM
Compound: c1cc(Nc2cc(C3CC3)[nH]n2)nc(NCC2CCNCC2)n1

Ki [3]: 0.157 µM | Ki [4]: 0.1 µM
Compound: N[C@H]1CC[C@H](Nc2nccc(Nc3cc(C4CC4)[nH]n3)n2)CC1

Ki [3]: 0.026 µM | Ki [4]: 0.038 µM | IC50 [8]: 2.2 µM | Papp A→B [9]: 5 nm/s | Papp B→A [10]: 20 nm/s | clearance [11]: 9.48 L/h/kg | clearance [12]: 4.98 L/h/kg | logD [13]: -0.2 | solubility kinetic [14]: 149 µM (≈ 48.9 µg/mL) | Stability [5]: 69.3% | Stability [6]: Stable | Stability [15]: Stable | Drug uptake [16]: Active
Compound: N[C@H]1CC[C@H](CNc2nccc(Nc3cc(C4CC4)[nH]n3)n2)CC1

Ki [3]: 0.021 µM | Ki [4]: 0.004 µM
Compound: N[C@H]1CC[C@@H](CNc2nccc(Nc3cc(C4CC4)[nH]n3)n2)CC1

Ki [3]: 0.138 µM | Ki [4]: 0.563 µM | clearance [17]: 7.32 L/h/kg | Drug metabolism [18]: metabolite_notdetected | Stability [19]: 50% | Stability [20]: 60%
Compound: Nc1ccc(CNc2nccc(Nc3cc(C4CC4)[nH]n3)n2)cn1

Ki [3]: 0.346 µM | Ki [4]: 0.61 µM
Compound: CNc1ccc(CNc2nccc(Nc3cc(C4CC4)[nH]n3)n2)cn1

Ki [3]: 1.47 µM | Ki [4]: 0.907 µM
Compound: CN(C)c1ccc(CNc2nccc(Nc3cc(C4CC4)[nH]n3)n2)cn1

Ki [3]: 0.027 µM | Ki [4]: 0.144 µM | clearance [17]: 1.81 L/h/kg | logD [21]: 3
Compound: c1cc(Nc2cc(C3CC3)[nH]n2)nc(NCc2ccc3[nH]ccc3c2)n1

Ki [3]: 0.031 µM | Ki [4]: 0.042 µM | IC50 [8]: 0.12 µM | clearance [17]: 1.8 L/h/kg
Compound: C[C@H](Nc1nccc(Nc2cc(C3CC3)[nH]n2)n1)c1ccc2[nH]ccc2c1

Ki [3]: 0.117 µM | Ki [4]: 0.961 µM | clearance [17]: 1.45 L/h/kg | Drug metabolism [22]: metabolite_notdetected | logD [21]: 2.5
Compound: c1cc(Nc2cc(C3CC3)[nH]n2)nc(NCc2ccc3[nH]cnc3c2)n1

Ki [3]: 0.607 µM | Ki [4]: 1.66 µM
Compound: Cn1cnc2cc(CNc3nccc(Nc4cc(C5CC5)[nH]n4)n3)ccc21

Ki [3]: 0.584 µM | Ki [4]: 1.9 µM
Compound: Cn1cnc2ccc(CNc3nccc(Nc4cc(C5CC5)[nH]n4)n3)cc21

Ki [3]: 0.012 µM | Ki [4]: 0.106 µM | IC50 [8]: 0.281 µM | Papp A→B [9]: 9 nm/s | Papp B→A [10]: 68 nm/s | clearance [17]: 1.22 L/h/kg | fraction unbound [23]: 0.011
Compound: C[C@H](Nc1nccc(Nc2cc(C3CC3)[nH]n2)n1)c1ccc2[nH]cnc2c1

Ki [3]: 0.179 µM | Ki [4]: 1.11 µM
Compound: Fc1c(CNc2nccc(Nc3cc(C4CC4)[nH]n3)n2)ccc2[nH]cnc12

Ki [3]: 0.005 µM | Ki [4]: 0.455 µM | IC50 [8]: 0.362 µM | Papp A→B [9]: 28 nm/s | Papp B→A [10]: 63 nm/s | clearance [24]: 0.384 L/h/kg | fraction unbound [23]: 0.002
Compound: Clc1c(CNc2nccc(Nc3cc(C4CC4)[nH]n3)n2)ccc2[nH]cnc12

Ki [3]: 0.004 µM | IC50 [8]: 0.11 µM | Papp A→B [9]: 19 nm/s | Papp B→A [10]: 180 nm/s | clearance [24]: 4.02 L/h/kg | bioavailability [25]: 12% | fraction unbound [23]: 0.011
Compound: CN(Cc1ccc2[nH]cnc2c1Cl)c1nccc(Nc2cc(C3CC3)[nH]n2)n1

Ki [3]: 0.005 µM | Ki [4]: 0.547 µM | IC50 [8]: 0.085 µM | Papp A→B [9]: 74 nm/s | Papp B→A [10]: 111 nm/s | clearance [24]: 3.66 L/h/kg | Ki [26]: 0.0053 µM | fraction unbound [23]: 0.007
Compound: CCN(Cc1ccc2[nH]cnc2c1Cl)c1nccc(Nc2cc(C3CC3)[nH]n2)n1

Ki [3]: 1.9 µM
Compound: C[C@@H](Nc1nccc(Nc2cc(C3CC3)[nH]n2)n1)c1ccc2[nH]ccc2c1
